Source: patent US20230241057A1, “COMPOUNDS FOR THE PREVENTION, TREATMENT AND DIAGNOSIS OF THROMBI” (INSERM (INSTITUT NATIONAL DE LA SANTÉ ET DE LA RECHERCHE …, priority 2020, published 2023)

Assays:
blood platelets = experiment: Platelet adhesion to coated nitinol disks, phalloidin-AlexaFluor 488 staining; assay type: cell-based; conditions: for Platelet binding (% of max): coated nitinol disks immersed 10 min in blood withdrawn in PPAK, mean±SEM, 6/coating
Description: (§1) Nitinol disks are left untouched (bare metal) or coated with the tested chromatin ligands following a polydopamine, DBCO-PEG4-amine and azide derivative ligand sequential dip-coating layering procedure.
(§2) Each dot corresponds to the mean binding (% of max, mean±SEM) of chromatin (X-axis) and platelet (Y-axix) with the standard error bars parallel to the respective axis.
(§3) Different linkers were combined with piperaquine and the resulting azide derivatives were used for coating nitinol disks (N=6 for each compound), following the described 3-step dip-coating procedure. Platelet adhesion (left panel) was evaluated by analyzing the surface and intensity of the phalloidin staining (green fluorescence) after immersion of the disks (N^o=6/coating) for 10 min in blood withdrawn in PPAK (thrombin inhibitor providing a transient anticoagulation). The binding of extracellular chromatin was evaluated by applying for 3 minutes the disks on the bottom of wells in which fresh human neutrophils were stimulated with nigericin for 4 hours, to promote the formation of neutrophil extracellular traps (NETs). Extracellular chromatin was stained with the cell impermeant nuclear dye Sytox Green.

[1] = tested on: extracellular chromatin (NETs); experiment: Extracellular chromatin (NETs) binding to coated nitinol disks, Sytox Green staining; set-up: species or system human; conditions: for Chomatin binding (% of max): coated nitinol disks applied 3 minutes on nigericin-stimulated human neutrophils, mean±SEM, 6/coating; for Chromatin/Platelet binding ratio: ratio of chromatin binding to platelet binding (% of max)
Description: as §1
Extracellular chromatin adhering to the disk surface was stained with the cell impermeant nuclear dye Sytox Green.
as §2, §3

[2] = tested on: thrombus material (DNA and proteins); conditions: coated nitinol disks vs bare metal; thrombus slice 5 minutes at 37° C. in human plasma; Hoechst 33342 / Evans Blue staining
Description: Polydopamine (1 mg/ml in tris buffer, pH 8.5, 22±2 hours)
A fresh thrombus was prepared with human whole blood additioned with PMA 100 nM and ionomycin 1 μM to promote strong leukocyte activation leading to the release of extracellular chromatin within the thrombus. Slice of the same thrombus were layered onto coated and bare metal disks in the wells of a 48-well plate, covered with human plasma and incubated at 37° C. on an orbital shaker for 5 minutes. The thrombus slices were mechanically removed using tweezers, the disk washed in PBS and stained with a solution made of Hoechst 33342 (1 μg/ml, to stain DNA) and Evans Blue (3%, to stain proteins) in PBS for 5 minutes. […] The image analysis was performed using the Image J open software.

[3] = coated disk compared to bare metal

| Compound | Platelet binding (% of max) (blood platelets) | Chomatin binding (% of max) [1] | Chromatin/Platelet binding ratio [1] | Platelet binding (example disk image, in words) (blood platelets; [3]) | Chromatin binding (example disk image, in words) [1, 3] | DNA and proteins captured from the thrombus (Integrated Density) [2] |
| --- | --- | --- | --- | --- | --- | --- |
| O=C(O)c1cn(C2CC2)c2cc(N3CCNCC3)c(F)cc2c1=O [Ciprofloxacin, reference compound] | 27.57 ± 3.22 % of max | 23.63 ± 9.59 % of max |  |  |  |  |
| Cn1cc(NC(=O)c2cc(NC(=O)c3cc(NC=O)cn3C)cn2C)cc1C(=O)NCCC(=N)N [Distamycin, reference compound] | 12.42 ± 1.72 % of max | 12.26 ± 4.14 % of max | 0.99 |  |  |  |
| [N-]=[N+]=NCCOCCOCCNC(=O)c1cc2cc(N(CCCl)CCCl)ccc2o1 [MBF, N-(2-(2-(2-azidoethoxy)ethoxy)ethyl)-5-(bis(2-chloroethyl)amino)benzofuran-2-carboxamide] | 23.18 ± 4.05 % of max | 66.07 ± 13.21 % of max | 2.85 | low platelet binding | high |  |
| [N-]=[N+]=NCCOCCOCCNC(=O)CCc1ccc(N(CCCl)CCCl)cc1 [PPM, N-(2-(2-(2-azidoethoxy)ethoxy)ethyl)-3-(4-(bis(2-chloroethyl)amino)phenyl)propanamide] | 48.8 ± 5.59 % of max | 36.75 ± 5.78 % of max | 0.75 |  |  |  |
| CCCCCOCCCCCN=[N+]=[N-] [Pipe-2] | 16 ± 5.78 % of max | 57.5 7.05 % of max | 3.59 |  |  |  |
| CSc1ccc2c(c1)N(CCC1CCCCN1C)c1ccccc1S2 (centres unmarked) [thioridazine] |  |  |  |  |  | capture more DNA and proteins |
